Legend:
C2C12 muscle cells [1] = test: Oxygen consumption rate of TNF-α damaged muscle cells (Seahorse XF24); type: cell-based, mice; conditions: TNF-α 10 ng/ml, relative to control group (1-fold); for oxygen consumption of ATP production: FIG. 1A; for oxygen consumption of maximal respiration: FIG. 1B
Description: (§1) It is known that severe exercise or long-term exercise may lead to a large release of tumor necrosis factor alpha (TNF-α) and a decrease in mitochondria functions such as oxygen consumption rate (OCR, which represents the ability of aerobic metabolism of mitochondria) and extracellular acidification rate (ECAR, which represents the ability of glycolysis of mitochondria), so that the mitochondria cannot generate enough energy to supply cells in a subject, thereby resulting in the occurrence of fatigue in the subject. In this example, the C2C12 muscle cells with TNF-α induced damages were administered with the composition of the present invention, which comprises Cistanche tubulosa extract and ubiquinol, to understand the effect of the composition on anti-fatigue.
First, C2C12 cells (i.e., the muscle cells of mice; purchased from ATCC) were cultivated in an H-DMEM medium (purchased from Sigma company) containing 10% fetal bovine serum (purchased from BI company). After the C2C12 cells grew to the confluence rate of 80% (i.e., the mixed monolayer cells were accounted for 80% of the area), the cells were divided into seventeen groups (including a control group, a TNF-α group and fifteen experimental groups) and separately subjected to the following treatments: • 1. Control group: cells were cultivated in an H-DMEM medium for 6 hours; and then, the medium was replaced with a differentiation medium (containing an H-DMEM medium and 2% horse serum), and the cells were continuously cultivated for another 4 days. • 2. TNF-α group: cells were cultivated in an H-DMEM medium for 6 hours; and then, the medium was replaced with a differentiation medium (containing an H-DMEM medium and 2% horse serum) being externally added with TNF-α (to a final concentration of 10 ng/ml), and the cells were continuously cultivated overnight; finally, the medium was replaced with a differentiation medium, and the cells were cultivated for another 4 days. • 3. […] In Table 1, the extract and ubiquinol were dissolved in a differentiation medium, and the unit “μg/ml” represents the weight of extract (as dry weight) and/or ubiquinol (as dry weight) in every milliliter of the differentiation medium.
The cells in the control group, TNF-α group and experimental groups 1 to 15 provided by Example (1-1) were respectively taken, and the oxygen consumption rates (including the oxygen consumption of ATP production and the oxygen consumption of maximal respiration) thereof were examined by a cell energy metabolism analyzer (Seahorse XF24). Then, the result of the control group was served as a basis (i.e., the oxygen consumption rate of the control group was set as 1-fold) to calculate the oxygen consumption rate of each group.

C2C12 muscle cells [2] = test: Extracellular acidification rate of TNF-α damaged muscle cells (cell energy metabolism analyzer); type: cell-based, mice; conditions: TNF-α 10 ng/ml, relative to control group (1-fold)
Description: as §1
First, C2C12 cells (i.e., the muscle cells of mice; purchased from ATCC) were cultivated in an H-DMEM medium (purchased from Sigma company) containing 10% fetal bovine serum (purchased from BI company). After the C2C12 cells grew to the confluence rate of 80% (i.e., the mixed monolayer cells were accounted for 80% of the area), the cells were divided into seventeen groups (including a control group, a TNF-α group and fifteen experimental groups) and separately subjected to the following treatments: • 1. […]

Row | Compound | oxygen consumption of ATP production (C2C12 muscle cells [1]) | oxygen consumption of maximal respiration (C2C12 muscle cells [1]) | glycolysis level (C2C12 muscle cells [2]; FIG. 2A) | glycolytic reserve (C2C12 muscle cells [2]; FIG. 2B)
1 | COc1c(O)c(C)c(C/C=C(\C)CC/C=C(\C)CC/C=C(\C)CC/C=C(\C)CC/C=C(\C)CC/C=C(\C)CC/C=C(\C)CC/C=C(\C)CC/C=C(\C)CCC=C(C)C)c(O)c1OC [ubiquinol] | cannot alleviate | cannot alleviate |  | 
2 | TNF-α | significantly decreased | significantly decreased | significantly increased | significantly decreased

Reference: patent US10485836B2, “Anti-fatigue composition used for increasing endurance performance, and use of the same” (SINPHAR PHARMACEUTICAL CO., LTD., priority 2017, dated 2019)
